Source: ChEMBL document CHEMBL1201862, “PubChem BioAssay data set” (2004)
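Tested at 5 concentrations; 48 h exposure; 96-well plates; endpoints linearly interpolated, else capped at highest concentration. At the GI50, growth is halved.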 Calls of active or inactive are those of the source. Rule as the data show it: active = GI50 up to about 1.1 µM and inactive = higher.

Columns and labels:
Assay in all cases: DTP human tumour cell line panel, 48 h
A498 = test system: A498
MDA-MB-231 = test system: MDA-MB-231
BT-549 = test system: BT-549
SF-539 = test system: SF-539
SK-MEL-28 = test system: SK-MEL-28
MCF7 = test system: MCF7
Hs-578T = test system: Hs-578T
MDA-N = test system: MDA-N
HL-60 = test system: HL-60
NCI-H23 = test system: NCI-H23
CAKI-1 = test system: CAKI-1
OVCAR-4 = test system: OVCAR-4
OVCAR-8 = test system: OVCAR-8
HOP-92 = test system: HOP-92
SF-268 = test system: SF-268
HT-29 = test system: HT-29
T47D = test system: T47D
HCT-116 = test system: HCT-116
NCI-H226 = test system: NCI-H226
RXF 393 = test system: RXF 393
SK-MEL-2 = test system: SK-MEL-2
NCI-H460 = test system: NCI-H460
CCRF-CEM = test system: CCRF-CEM
EKVX = test system: EKVX
ACHN = test system: ACHN
HOP-62 = test system: HOP-62
SW-620 = test system: SW-620
SR = test system: SR
HCT-15 = test system: HCT-15
DU-145 = test system: DU-145
U-251 = test system: U-251
IGROV-1 = test system: IGROV-1
NCI/ADR-RES = test system: NCI/ADR-RES
LOX IMVI = test system: LOX IMVI
MDA-MB-435 = test system: MDA-MB-435
SNB-19 = test system: SNB-19
786-0 = test system: 786-0
RPMI-8226 = test system: RPMI-8226
KM12 = test system: KM12
OVCAR-3 = test system: OVCAR-3
SK-MEL-5 = test system: SK-MEL-5
UACC-257 = test system: UACC-257
SN12C = test system: SN12C
SF-295 = test system: SF-295
K562 = test system: K562
HCC 2998 = test system: HCC 2998
A549 = test system: A549
UO-31 = test system: UO-31
MOLT-4 = test system: MOLT-4
NCI-H522 = test system: NCI-H522
UACC-62 = test system: UACC-62
OVCAR-5 = test system: OVCAR-5
TK-10 = test system: TK-10
M14 = test system: M14
PC-3 = test system: PC-3
COLO 205 = test system: COLO 205
SNB-75 = test system: SNB-75
SK-OV-3 = test system: SK-OV-3
Malme-3M = test system: Malme-3M

CC1(C=O)CC(CCc2ccccc2)NC1Cc1ccc(O)cc1 (stereo not given)
GI50 (A498): 14.6 µM (inactive)
GI50 (MDA-MB-231): 13.6 µM (inactive)
GI50 (BT-549): 22.9 µM (inactive)
GI50 (SF-539): 15.3 µM (inactive)
GI50 (SK-MEL-28): 22.1 µM (inactive)
GI50 (MCF7): 14.1 µM (inactive)
GI50 (Hs-578T): 19.5 µM (inactive)
GI50 (MDA-N): 17.4 µM (inactive)
GI50 (HL-60): 12.6 µM (inactive)
GI50 (NCI-H23): 23 µM (inactive)
GI50 (CAKI-1): 14.8 µM (inactive)
GI50 (OVCAR-4): 14.2 µM (inactive)
GI50 (OVCAR-8): 21 µM (inactive)
GI50 (HOP-92): 15.3 µM (inactive)
GI50 (SF-268): 16.6 µM (inactive)
GI50 (HT-29): 14.9 µM (inactive)
GI50 (T47D): 15.8 µM (inactive)
GI50 (HCT-116): 15.6 µM (inactive)
GI50 (NCI-H226): 15.5 µM (inactive)
GI50 (RXF 393): 15.7 µM (inactive)
GI50 (SK-MEL-2): 14.8 µM (inactive)
GI50 (NCI-H460): 16.6 µM (inactive)
GI50 (CCRF-CEM): 20.2 µM (inactive)
GI50 (EKVX): 15.2 µM (inactive)
GI50 (ACHN): 15.3 µM (inactive)
GI50 (HOP-62): 18.6 µM (inactive)
GI50 (SW-620): 23.3 µM (inactive)
GI50 (SR): 12 µM (inactive)
GI50 (HCT-15): 21.3 µM
GI50 (DU-145): 17.5 µM (inactive)
GI50 (U-251): 13.7 µM (inactive)
GI50 (IGROV-1): 14 µM (inactive)
GI50 (NCI/ADR-RES): 18.8 µM (inactive)
GI50 (LOX IMVI): 17 µM (inactive)
GI50 (MDA-MB-435): 17.4 µM (inactive)
GI50 (SNB-19): 14.5 µM (inactive)
GI50 (786-0): 15.2 µM (inactive)
GI50 (RPMI-8226): 16.2 µM (inactive)
GI50 (KM12): 18.2 µM (inactive)
GI50 (OVCAR-3): 17 µM (inactive)
GI50 (SK-MEL-5): 15.6 µM (inactive)
GI50 (UACC-257): 15.1 µM (inactive)
GI50 (SN12C): 16.9 µM (inactive)
GI50 (SF-295): 17.7 µM (inactive)
GI50 (K562): 16.7 µM (inactive)
GI50 (HCC 2998): 11.6 µM (inactive)
GI50 (A549): 15.4 µM (inactive)
GI50 (UO-31): 14.5 µM (inactive)
GI50 (MOLT-4): 14.1 µM (inactive)
GI50 (NCI-H522): 19.4 µM (inactive)
GI50 (UACC-62): 16.6 µM (inactive)
GI50 (OVCAR-5): 17.4 µM (inactive)
GI50 (TK-10): 17.3 µM (inactive)
GI50 (M14): 15.6 µM (inactive)
GI50 (PC-3): 13.8 µM (inactive)
GI50 (COLO 205): 10.6 µM (inactive)
GI50 (SNB-75): 14.7 µM (inactive)
GI50 (SK-OV-3): 17.4 µM (inactive)

c1ccc(C[n+]2cccc(-c3cc4ccccc4[nH]3)c2)cc1
GI50 (A498): 39.5 µM (inactive)
GI50 (MDA-MB-231): 37.2 µM (inactive)
GI50 (BT-549): 13.4 µM (inactive)
GI50 (SK-MEL-28): 16.4 µM (inactive)
GI50 (MCF7): 27.6 µM (inactive)
GI50 (Malme-3M): 14.6 µM (inactive)
GI50 (Hs-578T): 20.2 µM (inactive)
GI50 (MDA-N): 19.1 µM (inactive)
GI50 (HL-60): 17.6 µM (inactive)
GI50 (NCI-H23): 16.4 µM (inactive)
GI50 (CAKI-1): > 100 µM (inactive)
GI50 (OVCAR-4): 40.2 µM (inactive)
GI50 (OVCAR-8): 38.3 µM (inactive)
GI50 (HOP-92): 16.4 µM (inactive)
GI50 (SF-268): 17.6 µM (inactive)
GI50 (HT-29): 32.5 µM (inactive)
GI50 (T47D): 23.6 µM (inactive)
GI50 (HCT-116): 32.5 µM (inactive)
GI50 (NCI-H226): 31.2 µM (inactive)
GI50 (RXF 393): > 100 µM (inactive)
GI50 (SK-MEL-2): 16.6 µM (inactive)
GI50 (NCI-H460): 25.3 µM (inactive)
GI50 (CCRF-CEM): 19.9 µM (inactive)
GI50 (EKVX): 42.8 µM (inactive)
GI50 (ACHN): > 100 µM (inactive)
GI50 (HOP-62): 31.8 µM (inactive)
GI50 (SW-620): 72.6 µM (inactive)
GI50 (SR): 32.1 µM (inactive)
GI50 (HCT-15): > 100 µM
GI50 (DU-145): 47.4 µM (inactive)
GI50 (U-251): 34.5 µM (inactive)
GI50 (IGROV-1): 19.4 µM (inactive)
GI50 (NCI/ADR-RES): > 100 µM (inactive)
GI50 (LOX IMVI): 19.1 µM (inactive)
GI50 (MDA-MB-435): 18.5 µM (inactive)
GI50 (SNB-19): 26.5 µM (inactive)
GI50 (786-0): 50.1 µM (inactive)
GI50 (RPMI-8226): 17.6 µM (inactive)
GI50 (KM12): 16.6 µM (inactive)
GI50 (OVCAR-3): 31 µM (inactive)
GI50 (SK-MEL-5): 10.6 µM (inactive)
GI50 (UACC-257): 14.9 µM (inactive)
GI50 (SN12C): 15.4 µM (inactive)
GI50 (SF-295): 77.8 µM (inactive)
GI50 (K562): 21.6 µM (inactive)
GI50 (A549): 91.2 µM (inactive)
GI50 (UO-31): > 100 µM (inactive)
GI50 (MOLT-4): 21.5 µM (inactive)
GI50 (NCI-H522): 16.4 µM (inactive)
GI50 (UACC-62): 15.7 µM (inactive)
GI50 (OVCAR-5): 42.7 µM (inactive)
GI50 (TK-10): 32.7 µM (inactive)
GI50 (M14): 21.7 µM (inactive)
GI50 (PC-3): 39.2 µM (inactive)
GI50 (COLO 205): 15 µM (inactive)
GI50 (SNB-75): 29.4 µM (inactive)
GI50 (SK-OV-3): > 100 µM (inactive)
